ChEMBL document CHEMBL1201862, “PubChem BioAssay data set” (2004)
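Cultured in 96-well plates, cells were exposed to test compound for 48 hours across five concentrations. GI50 = concentration required for 50% inhibition of growth.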 The source made the active and inactive calls. No stated cut-off is given here; in the data, active = GI50 up to about 1.1 µM and inactive = higher.

What was measured:
Test in all cases: NCI tumour cell line growth inhibition, 48 h
RXF 631 = test system: RXF 631
XF498 = test system: XF498
KM-20L2 = test system: KM-20L2
M19-MEL = test system: M19-MEL
LXFL 529 = test system: LXFL 529
DLD-1 = test system: DLD-1
DMS-273 = test system: DMS-273
HOP-18 = test system: HOP-18
SNB-78 = test system: SNB-78

Row | Structure (SMILES) | GI50 (RXF 631) | GI50 (XF498) | GI50 (KM-20L2) | GI50 (M19-MEL) | GI50 (LXFL 529) | GI50 (DLD-1) | GI50 (DMS-273) | GI50 (HOP-18) | GI50 (SNB-78)
1 | CCCOP1(=O)C=C(C)C(Cl)=C(C)C1 (stereo not given) | 37.1 µM (inactive) | 16.5 µM (inactive) | 29.3 µM (inactive) | 21 µM (inactive) | 20.7 µM (inactive) | 22.8 µM (inactive) | 14.6 µM (inactive) | 29.4 µM (inactive) | –
2 | O=c1cc(CO)oc2c3c(cc(O)c12)OCC(COC1OC(CO)C(O)C(O)C1O)=CC3 (stereo not given) | – | – | > 100 µM (inactive) | > 100 µM (inactive) | > 100 µM (inactive) | > 100 µM (inactive) | > 100 µM (inactive) | > 100 µM (inactive) | > 100 µM (inactive)
3 | Cc1cc2c(cc1C)[n+]([O-])c(C(=O)/C=C/c1ccc3c(c1)OCO3)c(C)[n+]2[O-] | 10.1 µM (inactive) | 27 µM (inactive) | > 100 µM (inactive) | > 100 µM (inactive) | – | > 100 µM (inactive) | 27 µM (inactive) | > 100 µM (inactive) | 60.3 µM (inactive)
4 | COc1cc2c(cc1O)C1C(O)C(O)C=C3CCN(C2)C31 (stereo not given) | 2.97 µM (inactive) | 1.36 µM (inactive) | 2.34 µM (inactive) | 2.72 µM (inactive) | 3.18 µM (inactive) | 2.47 µM (inactive) | 1.95 µM (inactive) | 2.43 µM (inactive) | 0.565 µM (active)
5 | c1ccc2c(c1)[nH]c1c[nH]c3c4cccnc4nc-3c12 | – | – | – | 16.9 µM (inactive) | 18.5 µM (inactive) | 15.6 µM (inactive) | – | 18.6 µM (inactive) | 23.4 µM (inactive)
6 | CC(=O)O[C@H]1C(=O)[C@@]2(C)C([C@H](OC(=O)c3ccccc3)[C@]3(O)C[C@H](OC(=O)[C@H](O)[C@H](NC(=O)c4ccccc4)c4ccc(Cl)cc4)C(C)=C1C3(C)C)C1(OC(C)=O)CO[C@@H]1C[C@@H]2O (stereo not given in full) | 0.104 µM (active) | 0.00728 µM (active) | 0.00103 µM (active) | 0.000302 µM (active) | 0.00191 µM (active) | 0.00233 µM (active) | 0.000111 µM (active) | 0.0794 µM (active) | 0.071 µM (active)
7 | CC1=C(C(=O)Nc2ccccc2)C(c2ccc(C(C)C)cc2)C(C(=O)Nc2ccccc2)=C(C)N1 | 18.2 µM (inactive) | 13.1 µM (inactive) | 15.2 µM (inactive) | 15.6 µM (inactive) | 16.7 µM (inactive) | 17.5 µM (inactive) | – | 19.1 µM (inactive) | 31.5 µM (inactive)
8 | OCCNCCOc1ccc(/C(=C(/Cl)c2ccccc2)c2ccccc2)cc1 | – | 2.9 µM (inactive) | 2.47 µM (inactive) | 10.9 µM (inactive) | 6.92 µM (inactive) | 12.1 µM (inactive) | – | 19.3 µM (inactive) | 8.51 µM (inactive)
9 | COC(=O)C(=O)C(C(=O)C(=O)Nc1cc([N+](=O)[O-])ccc1C#N)c1nc2ccccc2nc1O (stereo not given) | > 100 µM (inactive) | > 100 µM (inactive) | > 100 µM (inactive) | > 100 µM (inactive) | > 100 µM (inactive) | > 100 µM (inactive) | > 100 µM (inactive) | > 100 µM (inactive) | –
10 | C=C1C(=O)OC2/C=C(\C)C(OC(C)=O)C3OC3C(C)(O)CC(OC(=O)/C(C)=C/C)C12 (stereo not given) | – | 6.87 µM (inactive) | 4.46 µM (inactive) | 8.49 µM (inactive) | 2.44 µM (inactive) | – | 24.5 µM (inactive) | 11.3 µM (inactive) | 8.3 µM (inactive)
11 | CC1(C)c2ccccc2N2C(c3ccccc3)=NOC21C (stereo not given) | > 100 µM (inactive) | – | > 100 µM (inactive) | > 100 µM (inactive) | > 100 µM (inactive) | > 100 µM (inactive) | > 100 µM (inactive) | > 100 µM (inactive) | > 100 µM (inactive)
12 | NC(=S)N/N=C1\C(=O)N(CCc2ccccc2)C(=O)C1C(=O)NCCc1ccccc1 (stereo not given) | – | – | > 100 µM (inactive) | > 100 µM (inactive) | > 100 µM (inactive) | – | > 100 µM (inactive) | > 100 µM (inactive) | > 100 µM (inactive)
13 | O=c1c2ccccc2c2nc3ccccc3nc2n1C1CCCCC1 | – | – | > 100 µM (inactive) | > 100 µM (inactive) | > 100 µM (inactive) | – | > 100 µM (inactive) | – | > 100 µM (inactive)
14 | CC(C)N(CCn1c2c3ccccc3ccc2c2oc(=O)c3ccccc3c21)C(C)C | > 100 µM (inactive) | 75.7 µM (inactive) | > 100 µM (inactive) | > 100 µM (inactive) | > 100 µM (inactive) | > 100 µM (inactive) | – | 32.7 µM (inactive) | 98.9 µM (inactive)
15 | CCOC(=O)CN(c1ccccc1)c1nc(=[N+](C)C)ss1 | – | – | 54.7 µM (inactive) | 0.303 µM (active) | – | 6.93 µM (inactive) | 0.318 µM (active) | 53 µM (inactive) | 32.4 µM (inactive)
16 | CCC1(OC(=O)CN2CCN(CCO)CC2)C(=O)OCc2c1cc1n(c2=O)Cc2cc3ccccc3nc2-1 (stereo not given) | – | 2.16 µM (inactive) | 1.22 µM (inactive) | 0.789 µM (active) | 6.05 µM (inactive) | 6.62 µM (inactive) | 0.0652 µM (active) | 0.76 µM (active) | 5.25 µM (inactive)
17 | CN(CC1NCCCC1O)C12CC3CC(CC(C3)C1)C2 (stereo not given) | – | > 100 µM (inactive) | > 100 µM (inactive) | > 100 µM (inactive) | > 100 µM (inactive) | > 100 µM (inactive) | > 100 µM (inactive) | > 100 µM (inactive) | –
18 | CC(CCc1ccc2c(c1)c(N)c1ccc(N)cc1[n+]2[O-])CC(C)(C)C (stereo not given) | 1.65 µM (inactive) | 1.16 µM (inactive) | 1.37 µM (inactive) | 1.44 µM (inactive) | 1.53 µM (inactive) | 1.82 µM (inactive) | 2.21 µM (inactive) | 1.93 µM (inactive) | 2.05 µM (inactive)
19 | CC[C@@]1(OP(=O)(O)O)C(=O)OCc2c1cc1n(c2=O)Cc2cc3ccccc3nc2-1 | – | 0.221 µM (active) | 1 µM (active) | 1.01 µM (active) | 1.73 µM (inactive) | 1.11 µM (active) | 0.0513 µM (active) | 1.08 µM (active) | 4.63 µM (inactive)
20 | COc1cc(Cl)c2c3c(c(C(=O)c4ccccc4)oc13)CCC2 | – | > 100 µM (inactive) | > 100 µM (inactive) | > 100 µM (inactive) | > 100 µM (inactive) | > 100 µM (inactive) | 69.7 µM (inactive) | > 100 µM (inactive) | > 100 µM (inactive)
21 | COC(=O)C1=C(C(=O)OC)C2(c3ccccc3)OC1(c1ccccc1)c1cc3ccccc3cc12 | 1.88 µM (inactive) | – | 1.88 µM (inactive) | 1.98 µM (inactive) | 1.22 µM (inactive) | 1.74 µM (inactive) | 1.76 µM (inactive) | 1.22 µM (inactive) | –
22 | CCc1ccccc1NC(=O)CC1NC(=O)CS1 (stereo not given) | > 100 µM (inactive) | > 100 µM (inactive) | > 100 µM (inactive) | > 100 µM (inactive) | > 100 µM (inactive) | > 100 µM (inactive) | > 100 µM (inactive) | > 100 µM (inactive) | > 100 µM (inactive)
23 | Cc1cc(Cl)ccc1NC(=O)C1C(=O)N(c2ccc(Cl)cc2C)C(=O)/C1=N\N (stereo not given) | – | 65 µM (inactive) | 36 µM (inactive) | 43.2 µM (inactive) | 44 µM (inactive) | – | – | 40.6 µM (inactive) | 74.8 µM (inactive)
24 | c1ccc(C(c2ccccc2)c2ccccn2)cc1 | > 100 µM (inactive) | > 100 µM (inactive) | > 100 µM (inactive) | > 100 µM (inactive) | – | > 100 µM (inactive) | > 100 µM (inactive) | > 100 µM (inactive) | > 100 µM (inactive)
25 | NC(=O)c1cccc([C@@H]2O[C@H](CO)[C@@H](O)[C@H]2O)c1 | 12 µM (inactive) | 2.05 µM (inactive) | 7.36 µM (inactive) | 21 µM (inactive) | – | 5.46 µM (inactive) | 7.66 µM (inactive) | 26.1 µM (inactive) | 7.43 µM (inactive)
26 | Cc1c2n(c(=O)[nH]c1=O)C1OC(CO)C(N=[N+]=[N-])C1O2 (stereo not given) | – | – | > 100 µM (inactive) | > 100 µM (inactive) | > 100 µM (inactive) | > 100 µM (inactive) | > 100 µM (inactive) | – | > 100 µM (inactive)
27 | COC(=O)c1c(N)n[nH]c1N | > 100 µM (inactive) | > 100 µM (inactive) | > 100 µM (inactive) | > 100 µM (inactive) | – | > 100 µM (inactive) | > 100 µM (inactive) | – | > 100 µM (inactive)
